Reference: BigSolDB 2.1

CC(C)(C)c1ccc(-c2nnc(-c3ccc(-c4ccccc4)cc3)o2)cc1
solubility (mole fraction)
Settings	273.15 K	283.15 K	293.15 K	303.15 K	313.15 K	323.15 K	333.15 K
in DMSO	–	–	0.00363	0.00603	0.00886	0.0133	0.0187
in NMP	–	0.0542	0.0662	0.0767	0.0954	0.115	–
in THF	–	0.0524	0.0589	0.065	0.0725	0.0817	–
in acetonitrile	–	0.00143	0.00234	0.00313	0.00464	0.00615	–
in chlorobenzene	–	0.0587	0.0709	0.0834	0.0952	0.112	–
in dichloromethane	0.0818	0.0911	0.104	0.112	–	–	–
in ethanol	–	0.00062	0.000963	0.00148	0.00222	0.00315	–
in ethyl acetate	–	0.0114	0.0153	0.0223	0.03	0.0392	–
in isopropanol	–	0.000711	0.0012	0.00174	0.00274	0.00324	–
in methanol	–	0.000412	0.000703	0.00105	0.00185	0.00281	–
in n-hexane	–	0.000411	0.000596	0.000996	0.00164	0.00235	–
in toluene	–	0.0303	0.04	0.0585	0.0834	0.109	–
